Experiments:
[1] = Tested in vitro for its ability to displace 3[H] clozapine from non-muscarinic receptor in rat brain; type: tissue-based
Dopamine receptor = assay: Displacement of 3[H]spiroperidol from Dopamine receptor in rat brain
[2] = molecular target: Muscarinic acetylcholine receptor; assay: Tested in vitro for its ability to displace 3[H] clozapine from Muscarinic acetylcholine receptor in rat brain; type: tissue-based

| IC50 [1] [nM] | IC50 (Dopamine receptor) [nM] | IC50 [2] [nM] | SMILES |
| --- | --- | --- | --- |
| 13 | – | – | CN1CCN(C2=Cc3cc(Cl)ccc3Cc3ccccc32)CC1 |
| 25 | > 10000 | – | CN1CCN(C2=Nc3ccccc3Nc3ccccc32)CC1 |
| 10 | – | – | CN1CCN(C2=Cc3ccccc3Cc3ccc(Cl)cc32)CC1 |
| 3.7 | – | – | CN1CCN(C2=Cc3ccccc3Cc3ccccc32)CC1 |
| 9.4 | 357 | 1970 | CN1CCN(C2=Cc3cc(Cl)ccc3Oc3ccccc32)CC1 |
| 4 | 1500 | 2290 | CN1CCN(C2=Cc3ccccc3Oc3ccccc32)CC1 |
| 17 | – | 28 | CN1CCN(C2=Nc3ccccc3Nc3ccc(Cl)cc32)CC1 [ISOCLOZAPINE] |

| SMILES | IC50 [1] [nM] | IC50 (Dopamine receptor) [nM] | IC50 [2] [nM] |
| --- | --- | --- | --- |
| CN1CCN(C2=Cc3ccccc3Oc3ccc(Cl)cc32)CC1 | 7.3 | 27 | 2027 |
| CN1CCN(C2=Nc3cc(Cl)ccc3Nc3ccccc32)CC1 [CLOZAPINE] | 13 | – | – |
